Laboratory results as given in patent US9943540B2, “Pharmaceutical formulation for the treatment of osteoarthritis containing clodronic acid and hyaluronic acid” (ABIOGEN PHARMA S.P.A., priority 2005, dated 2018).
“Also recorded” adds a separate entry of the source.

Experiments:
[1] = system: damaging effects on the joint structures by Freund's adjuvant; assay: Study on rats: damage to joint structures by Freund's adjuvant; format: in vivo
[2] = system: synovitis secondary to knee osteoarthritis; conditions: patients with synovitis secondary to knee osteoarthritis; cited from earlier work
[3] = system: gonalgia and gonarthrosis; assay: Multicenter clinical study of intra-articular clodronate; format: in vivo, patients; conditions: 2 mg once a week over 4 consecutive weeks
Excerpt: (§1) The low pH used was dictated by stability problems, +which made less acid values of the solutions unacceptable.

gonarthritis [4] = assay: Clinical trial of intra-articular sodium clodronate in evident gonarthritis; format: in vivo, patients
Excerpt: as §1

gonarthritis [5] = assay: Preliminary clinical trial of intra-articular infiltration, responders by Womac 20 and Womac 50; format: in vivo, patients; conditions: for Womac 20 (responders, 20% improvement in the symptoms) / Womac 50 (responders, 50% improvement in the symptoms): patients with gonarthritis, % of patients
Description: Preliminary clinical trials with the formulations according to the invention were based on the measurement of Womac 20 and Womac 50, ie. a 20% and 50% improvement in the symptoms to establish the responders to the treatment (Ann Rheum Dis. 2005). Recently, to assess the effectiveness of intra-articular clodronic acid, 1 mg of clodronic acid is administered in patients with gonarthritis obtaining an improvement in symptoms which, when evaluated with Womac 50, related to 32% of the patients. 15 patients suffering from gonarthritis received, according to the invention, an infiltration of 2 ml of solution constituted by 20 mg of hyaluronic acid (Hyalgan) together with 1 mg of clodronic acid once a week for 3 weeks. At the end of the infiltration cycle, as reassumed in the following table, 58% of the patients were responders according to Womac 20, and 37% were responders according to Womac 50. […] The final result of 3 weekly infiltrations of the combination of the two drugs was also better than the cycle with 5 weekly infiltrations of hyaluronic acid (Womac 20:51% and Womac 50:30%) or clodronic acid (Womac 20:54% and Womac 50:32%).

[6] = 2 ml intra-articular infiltration once a week for 3 weeks
[7] = 2 ml intra-articular infiltration once a week for 5 weeks

Compound	inhibition of damaging effects on the joint structures by Freund's adjuvant [1]	patient's symptomatology [2]	response to intra-articular administration [3]	attenuation of pain and recovery of joint movement (gonarthritis [4]; after 5 intra-articular injections of 2 mg)	adverse events: pain response at the time of the injection (gonarthritis [4]; clodronate alone intra-articularly, acidic solution, observed in the trials of b9 and b10)	improvement in symptoms evaluated with Womac 50 (gonarthritis [5]; 1 mg clodronic acid intra-articular in patients with gonarthritis, regimen not stated, % of the patients) [%]	Womac 20 (responders, 20% improvement in the symptoms) (gonarthritis [5]; [6]) [%]	Womac 50 (responders, 50% improvement in the symptoms) (gonarthritis [5]; [6]) [%]	Womac 20 (responders, 20% improvement in the symptoms) (gonarthritis [5]; [7]) [%]	Womac 50 (responders, 50% improvement in the symptoms) (gonarthritis [5]; [7]) [%]
O=P(O)(O)C(Cl)(Cl)P(=O)(O)O [sodium clodronate]	able to inhibit damaging effects on the joint structures	significant improvement	best responses	interesting results were observed	some adverse events were also observed; also recorded: normally occurs	–	–	–	–	–
O=P(O)(O)C(Cl)(Cl)P(=O)(O)O [Clodronic acid, clodronic acid]	–	–	–	–	–	32	43	27	54	32
sodium hyaluronate	–	–	–	–	–	–	41	24	51	30
